Laboratory results taken from article PMC4955970, “Stable, synthetic analogs of diadenosine tetraphosphate inhibit rat and human P2X3 receptors and inflammatory pain” (Molecular Pain, 2016).
Entries after “also recorded” stand apart in the source; their conditions may differ. Read-outs that look alike come from different tables or passages of the source.

Assays:
[1] = biological target: T1, rat homomeric P2X3 receptors (Rattus norvegicus, UniProt P49654); test: Whole-cell patch clamp on HEK293 cells expressing rat homomeric P2X3R (activation and HAD inhibition of α,β-meATP test pulses); type: cell-based; settings: for nH of activation curve: partial agonist dose-response
T1 construct: transfected with rat or human full-length P2X3 cDNA subcloned into pIRES2-EGFP; expressed in transfected cells; host or cells: HEK293T (HEK293 in the results)
T1 sequence (P49654 1-397): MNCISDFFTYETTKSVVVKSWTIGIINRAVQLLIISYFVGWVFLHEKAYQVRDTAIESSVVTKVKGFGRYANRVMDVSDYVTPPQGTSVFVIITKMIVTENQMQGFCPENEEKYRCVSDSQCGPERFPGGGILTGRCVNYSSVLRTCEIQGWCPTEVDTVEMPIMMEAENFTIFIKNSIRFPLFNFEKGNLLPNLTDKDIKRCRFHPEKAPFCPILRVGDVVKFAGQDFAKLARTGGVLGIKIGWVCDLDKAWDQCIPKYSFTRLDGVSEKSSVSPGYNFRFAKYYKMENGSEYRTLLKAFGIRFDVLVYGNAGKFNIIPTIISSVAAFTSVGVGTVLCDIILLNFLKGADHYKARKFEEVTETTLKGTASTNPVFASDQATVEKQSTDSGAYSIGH
Procedure: Rat trigeminal, nodose, or dorsal root ganglion (TG, NG, and DRG, respectivley) neurons in culture were prepared as described previously.[46],[47] Neurons were plated on poly-L-lysine (0.2 mg/ml)-coated Petri dishes and cultured for one to two days under an atmosphere containing 5% CO2. Cells were used within two days of plating when they lacked processes. HEK293T cells were prepared as reported previously[32],[48] and transfected with rat or human full-length P2X3 cDNA subcloned into pIRES2-EGFP (Clontech, Mountain View, CA, USA).
TG, NG, DRG, or HEK cells were recorded in the whole-cell configuration while being continuously superfused (at 2 ml/min) with control solution containing (in mM): 152 NaCl, 5 KCl, 1 MgCl2, 2 CaCl2, 10 glucose, and 10 HEPES; pH was adjusted to 7.4 with NaOH and osmolarity was adjusted to 320 mOsM with glucose. […] Responses to selective P2X3R agonist α,β-methylene-ATP (α,β-meATP; resistant to ectoATPase hydrolysis, Sigma-Aldrich) were measured using an EPC-9 amplifier operated by HEKA Patch Master software (HEKA Electronik, Germany). Cells were voltage-clamped at −70 mV. In most cells, series resistance was compensated by 80%. To determine EC50 values, dose-response curves were constructed for α,β-meATP by administering different agonist doses same cells and fitting data to a logistic equation (Origin 8.0, Microcal, Northampton, MA).
Agonists and antagonists were applied (usually for 2 s) via a rapid superfusion system (Rapid Solution Changer RSC-200; BioLogic Science Instruments, Grenoble, France) placed 100 to 150 µm near the cell. The time for the solution exchange across the cell was approximately 30 ms, as judged with liquid junction potential measurements. All chemicals, including enzymes for cell culture, were from Sigma-Aldrich (St. Louis, MO). Culture media were obtained from Invitrogen (Milan, Italy).
The peak amplitudes of the responses were measured using HEKA Patch Master software. For each agonist, dose-response plots were constructed by normalizing data with respect to the maximum response. All data are presented as mean ± SEM (n = the number of cells) with statistical significance assessed by paired t-test (for parametric data) or Mann-Whitney rank-sum test (for nonparametric data). Best fits of data with a sigmoid function were compared with respective control fits using Origin 8.0 software. A value of p < 0.05 was accepted as indicative of statistically significant difference.
Figure 2. Activation and inhibition of rat P2X3 receptors by AppNHppA. Top: Experimental protocol. Test pulses of 10 µM of α,β-meATP were delivered every 2 min. After two control pulses, AppNHppA at different concentrations was applied for 6 min. Example traces of P2X3R-mediated currents in control and after 2 min application of 10 nM (a) and 3 μM (b) of AppNHppA (corresponding to the part of the experimental protocol outlined by a dotted box). (c) The time course of the current inhibition by AppNHppA at different (1 nM–3 μM) concentrations (n = 4–6). Current amplitudes are normalized to control. (d) Dose-response curves for the activation and inhibition of P2X3-mediated currents by AppNHppA.

rat P2X4 receptors = biological target: T2, rat P2X4 receptors (Rattus norvegicus, UniProt P51577); test: Whole-cell patch clamp on HEK293 cells expressing rat P2X4 receptors (ATP-induced currents); type: cell-based; settings: 1 µM; 10 µM ATP every 2 min
T2 construct: expressed in transfected cells; host or cells: HEK293
T2 sequence (P51577 1-388): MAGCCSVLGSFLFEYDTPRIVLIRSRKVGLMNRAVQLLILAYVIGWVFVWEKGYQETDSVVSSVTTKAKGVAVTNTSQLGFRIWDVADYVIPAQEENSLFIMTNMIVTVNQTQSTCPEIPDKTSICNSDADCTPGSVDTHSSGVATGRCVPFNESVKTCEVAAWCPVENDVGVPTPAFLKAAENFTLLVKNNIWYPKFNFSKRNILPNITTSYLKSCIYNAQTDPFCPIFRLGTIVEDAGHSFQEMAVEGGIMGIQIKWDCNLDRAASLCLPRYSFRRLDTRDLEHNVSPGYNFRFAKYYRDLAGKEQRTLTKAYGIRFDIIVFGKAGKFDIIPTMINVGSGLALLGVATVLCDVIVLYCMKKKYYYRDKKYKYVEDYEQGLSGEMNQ

Row | depression of P2X3R currents at high rate of activation ([1]; 1 µM, α,β-meATP pulses every 30 s) [%] | depression of P2X3R currents at low rate of activation ([1]; 1 µM, α,β-meATP pulses every 2 min) [%] | IC50 ([1]; 6 min after drug application, test pulse 10 µM α,β-meATP, read-out: IC50 of HAD inhibition of P2X3R currents) [µM] | EC50 ([1]; HEK293 rat P2X3R, read-out: EC50 of partial agonist P2X3R activation) [µM] | nH of activation curve [1] | IC50 [1] [µM] | amplitude of α,β-meATP test response after application ([1]; 10 nM, test pulse 10 µM α,β-meATP, 2-min interval) | reduction of α,β-meATP test responses (HAD effect) ([1]; 100 nM, below activation threshold) [%] | inhibition of α,β-meATP test responses (HAD effect) ([1]; 3 µM, test pulse 10 µM α,β-meATP, 2-min interval) | induction of membrane currents ([1]; 0.1 or 1 µM, HEK293 rat homomeric P2X3R) | EC50 ([1]; EC50 of activation (summary restatement), rat P2X3R, summary statement) [µM] | EC50 ([1]; EC50 of partial agonist P2X3R activation, HEK293 rat P2X3R) [µM] | inhibitory action in presence of G-protein inhibitor GDP-β-S ([1]; GDP-β-S 500 µM introduced into cells) | inhibition at 1 µM ([1]; HEK293, read-out: inhibitory action on P2X3 receptors with GDP-β-S in intracellular solution) [%] | inhibition at 1 µM ([1]; HEK293, read-out: inhibitory action on P2X3 receptors with GTP in intracellular solution) [%] | agonist type at homomeric P2X3Rs ([1]; compared with full agonist α,β-meATP) | EC50/IC50 ratio (activation/inhibition index) ([1]; rat P2X3R) | current response relative to response induced by 10 µM α,β-meATP ([1]; saturating 1 mM, same cell) [%] | Structure (SMILES) | HAD or partial agonism effect on P2X4R-mediated currents (rat P2X4 receptors) | currents generated ([1]; 10 or 100 µM, HEK293 rat homomeric P2X3R)
1 | 81 ± 3 | 61.3 ± 5 | 0.55 ± 0.2 | 9.3 ± 1.7 | 2.27 ± 0.56 |  |  |  |  |  |  |  |  |  |  |  |  |  | Nc1ncnc2c1ncn2[C@@H]1O[C@H](COP(=O)(O)OP(=O)(O)CP(=O)(O)OP(=O)(O)OC[C@H]2O[C@@H](n3cnc4c(N)ncnc43)C(O)C2O)C(O)C1O (stereo partly drawn) [AppCH2ppA, diadenosine 5′,5′′′-P^1,P^4-(β,γ-methylene)tetraphosphate] |  | 
2 |  |  |  |  | 1.58 ± 0.05 | 0.2 ± 0.04 | almost unchanged | 38.2 ± 8.5 | complete inhibition | not to induce membrane currents | 41 | 41.6 ± 1.3 | remained unchanged | 23.9 ± 5.24 | 23.4 ± 2.01 | only a partial agonist | 205 | 41.2 ± 13 | Nc1ncnc2c1ncn2[C@@H]1O[C@H](COP(=O)(O)OP(=O)(O)NP(=O)(O)OP(=O)(O)OC[C@H]2O[C@@H](n3cnc4c(N)ncnc43)[C@H](O)[C@@H]2O)[C@@H](O)[C@H]1O [AppNHppA, diadenosine 5′,5′′′-P^1,P^4-(β,γ-imido)tetraphosphate] | did not produce any HAD or partial agonism effects; also recorded: does not inhibit | small and slowly desensitizing currents
